# Data as given in PMC9704104, “Towards safer anti-inflammatory therapy: synthesis of new thymol–pyrazole hybrids as dual COX-2/5-LOX inhibitors” (Journal of Enzyme Inhibition and Medicinal Chemistry, 2022).
# Several values for one entry are separate records, joined by “and”; a condition that tells them apart may be missing. Equal values may be shown once.
# System: formalin-induced rat paw oedema
# Test: Formalin-induced paw oedema test (acute inflammation model)
# Type: in vivo
# Description: Animals Adult female albino rats weighing 150-250 g were used (Experimental Animal Centre in Alexandria University). All animals accessed to food and water ad libitum and were housed in 12 h dark/light cycle in a controlled condition at 23-250C. They were allowed to acclimatize for 1 week prior to experimentation. Procedures involving animals and their care were conducted in conformity with the Guide for the Care and Use of Laboratory Animals published by US National Institute of Health4 (NIH publication No. 83-23, revised) and following the ethical guidelines of Alexandria University on laboratory animals. In all tests, adequate considerations were adopted to reduce pain or discomfort of animals (Approved by AlexU-IACUC) 3. […]
# Formalin-induced paw edema test (acute inflammation model):
# A solution of freshly prepared formalin 5% was used as a phlogistic agent. A mark was made on the lateral malleolus of the rats’ paws delineating the injection sites. The initial volume of paw was measured by means of digital calibrated Vernier caliper .
# After 45 minutes, 40 μl formalin were injected subcutaneously into the sub plantar tissue of the right hind paw of all groups under light ether anesthesia . An equal volume of saline was injected into the left hind paw and served as internal control for the degree of inflammation in the right hind paw. 5, 6 The volume of paw was measured in different treatment groups, 4 h following the formalin injection and the amount of increase in paw volume (edema volume) was calculated by subtracting the volumes before and 4 h after the injection of formalin. Edema was expressed as an increase in the volume of paw, and the percentage of edema inhibition (or percent protection against inflammation) for each rat and each group was calculated according to the following equation: […]
# Where Vt is the mean volume of edema at specific time interval (4 h) and Vo is the mean volume of edema […]
# Relative potency of the tested compounds was expressed as % inhibition of edema for the tested compounds
smiles,measurement,setting,value
"Cc1ccc(C(C)C)c(O)c1C=NNC(=O)c1cc(-c2ccccc2)n(-c2ccccc2)n1 [Compound 8d, N'-(2-Hydroxy-3-isopropyl-6-methylbenzylidene)-1,5-diphenyl-1H-pyrazole-3-carbo-hydrazide]",% Inhibition of oedema volume,"4 h, individual rats 1-3, 5 mg/kg orally, 5 mg/kg",58.10% and 50.70% and 53.10%
same,Volume of oedema (ml) 4h,"4 h after formalin, individual rats 1-3, 5 mg/kg orally, 5 mg/kg",5.95 mL and 6.03 mL and 6.02 mL
same,Abs diff.,"4 h minus 0, individual rats 1-3, 5 mg/kg orally, 5 mg/kg",0.93 and 1.07 and 1.0
same,"% Relative potency (4h) celecoxib, Mean ± SD","relative to % inhibition of celecoxib at 4 h, group mean ± SD",149.0 ± 17.26%
same,% Relative potency (4h) celecoxib,"relative to % inhibition of celecoxib at 4 h, individual rats 1-3",165.40% and 131.0% and 150.70%
same,"% Relative potency (4h) diclofenac, Mean ± SD","relative to % inhibition of diclofenac at 4 h, group mean ± SD",103.7 ± 16.65%
same,% Relative potency (4h) diclofenac,"relative to % inhibition of diclofenac at 4 h, individual rats 1-3",122.90% and 93.20% and 95.0%
same,Volume of oedema (ml) 0,"time 0, individual rats 1-3, 5 mg/kg orally, 5 mg/kg",5.02 mL and 4.96 mL
